# Assay results reported in ChEMBL document CHEMBL1138648, “Synthesis of new N-(2-(trifluoromethyl)pyridin-4-yl)anthranilic acid derivatives and their evaluation as anticancer agents” (2004).
# Columns and labels:
# Type in all cases: functional
# [1] = system: ACHN; assay: Growth inhibitory activity against Renal cancer ACHN cell line was determined; conditions: Homo sapiens
# [2] = system: DU-145; assay: Growth inhibitory activity against Prostate cancer DU-145 cell line was determined; conditions: Homo sapiens
# [3] = system: SF-268; assay: In vitro percent of proliferation of vehicle treated SF-268 human CNS cell lines was determined at 0.0010 M concentration
# [4] = system: HCT-15; assay: Growth inhibitory activity against colon cancer HCT-15 cell line was determined; conditions: Homo sapiens
# [5] = system: NCI-H322M; assay: Growth inhibitory activity against non small cell lung cancer NCI-H322M cell line was determined; conditions: Homo sapiens
# [6] = system: K562; assay: Growth inhibitory activity against Leukemia K-562 cell line was determined; conditions: Homo sapiens
# [7] = system: A549; assay: Growth inhibitory activity against non small cell lung cancer A549/ATCC cells; conditions: Homo sapiens
# [8] = system: NCI-H460; assay: In vitro percent of proliferation of vehicle treated NCI-H460 human lung cell lines was determined at 0.0010 M concentration
# [9] = system: TK-10; assay: Growth inhibitory activity against Renal cancer TK-10 cell line was determined; conditions: Homo sapiens
# [10] = system: RXF 393; assay: Growth inhibitory activity against Renal cancer RXF 393 cell line was determined; conditions: Homo sapiens
# [11] = system: OVCAR-5; assay: Growth inhibitory activity against Ovarian cancer OVCAR-5 cell line was determined; conditions: Homo sapiens
# [12] = system: HT-29; assay: Growth inhibitory activity against colon cancer HT-29 cell line was determined; conditions: Homo sapiens
# [13] = system: EKVX; assay: Growth inhibitory activity against non small cell lung cancer EKVX cell line was determined; conditions: Homo sapiens
# [14] = system: NCI/ADR-RES; assay: Growth inhibitory activity against Breast cancer NCI/ADR-RES cell line was determined; conditions: Homo sapiens
# [15] = system: SK-MEL-5; assay: Growth inhibitory activity against Melanoma SK-MEL-5 cell line was determined; conditions: Homo sapiens
# [16] = system: NCI-H226; assay: Growth inhibitory activity against non small cell lung cancer NCI-H226 cell line was determined; conditions: Homo sapiens
# [17] = system: CAKI-1; assay: Growth inhibitory activity against Renal cancer CAKI-1 cell line was determined; conditions: Homo sapiens
# [18] = system: MDA-MB-435; assay: Growth inhibitory activity against Breast cancer MDA-MB-435 cell line was determined; conditions: Homo sapiens
# [19] = system: SR; assay: Growth inhibitory activity against Leukemia SR cell line was determined; conditions: Homo sapiens
# [20] = system: 786-0; assay: Growth inhibitory activity against Renal cancer 786-0 cell line was determined; conditions: Homo sapiens
# [21] = system: UACC-62; assay: Growth inhibitory activity against Melanoma UACC-62 cell line was determined; conditions: Homo sapiens
# [22] = system: SK-MEL-28; assay: Growth inhibitory activity against Melanoma SK-MEL-28 cell line was determined; conditions: Homo sapiens
# [23] = system: BT-549; assay: Growth inhibitory activity against Breast cancer BT-549 cell line was determined; conditions: Homo sapiens
# [24] = system: NCI-H460; assay: Growth inhibitory activity against non small cell lung cancer H460 cell line was determined; conditions: Homo sapiens
# [25] = system: MOLT-4; assay: Growth inhibitory activity against Leukemia MOLT-4 cell line was determined; conditions: Homo sapiens
# [26] = system: SW-620; assay: Growth inhibitory activity against colon cancer SW-620 cell line was determined; conditions: Homo sapiens
# [27] = system: SNB-19; assay: Growth inhibitory activity against CNS cancer SNB-19 cell line was determined; conditions: Homo sapiens
# [28] = system: OVCAR-3; assay: Growth inhibitory activity against Ovarian cancer OVCAR-3 cell line was determined; conditions: Homo sapiens
# [29] = system: OVCAR-8; assay: Growth inhibitory activity against Ovarian cancer OVCAR-8 cell line was determined; conditions: Homo sapiens
# [30] = system: SF-268; assay: Growth inhibitory activity against CNS cancer SF-268 cell line was determined; conditions: Homo sapiens
# [31] = system: MDA-MB-231; assay: Growth inhibitory activity against Breast cancer MDA-MB-231/ATCC cell line was determined; conditions: Homo sapiens
# [32] = system: HCC 2998; assay: Growth inhibitory activity against colon cancer HCC2998 cell line was determined; conditions: Homo sapiens
# [33] = system: RPMI-8226; assay: Growth inhibitory activity against Leukemia RPMI-8226 cell line was determined; conditions: Homo sapiens
# [34] = system: SN12C; assay: Growth inhibitory activity against Renal cancer SN12C cell line was determined; conditions: Homo sapiens
# [35] = system: NCI-H522; assay: Growth inhibitory activity against non small cell lung cancer H522 cell line was determined; conditions: Homo sapiens
# [36] = system: PC-3; assay: Growth inhibitory activity against Prostate cancer PC-3 cell line was determined; conditions: Homo sapiens
# [37] = system: OVCAR-4; assay: Growth inhibitory activity against Ovarian cancer OVCAR-4 cell line was determined; conditions: Homo sapiens
# [38] = system: SF-295; assay: Growth inhibitory activity against CNS cancer SF-295 cell line was determined; conditions: Homo sapiens
# [39] = system: U-251; assay: Growth inhibitory activity against CNS cancer U251 cell line was determined; conditions: Homo sapiens
# [40] = system: KM12; assay: Growth inhibitory activity against colon cancer KM12 cell line was determined; conditions: Homo sapiens
# [41] = system: MCF7; assay: Growth inhibitory activity against Breast cancer MCF-7 cell line was determined; conditions: Homo sapiens
# [42] = system: NCI-H23; assay: Growth inhibitory activity against non small cell lung cancer NCI-H23 cell line was determined; conditions: Homo sapiens
# [43] = system: HL-60; assay: Growth inhibitory activity against Leukemia HL-60(TB) cell line was determined; conditions: Homo sapiens
# [44] = system: MCF7; assay: In vitro percent of proliferation of vehicle treated MCF-7 human breast cell lines was determined at 0.0010 M concentration
# [45] = system: HOP-92; assay: Growth inhibitory activity against non small cell lung cancer HOP-92 cell line was determined; conditions: Homo sapiens
# [46] = system: M14; assay: Growth inhibitory activity against Melanoma M14 cell line was determined; conditions: Homo sapiens
# [47] = system: SF-539; assay: Growth inhibitory activity against CNS cancer SF-539 cell line was determined; conditions: Homo sapiens
# [48] = system: UACC-257; assay: Growth inhibitory activity against Melanoma UACC-257 cell line was determined; conditions: Homo sapiens
# [49] = system: HOP-62; assay: Growth inhibitory activity against non small cell lung cancer HOP-62 cell line was determined; conditions: Homo sapiens
# [50] = system: CCRF-CEM; assay: Growth inhibitory activity against Leukemia CCRF-CEM cell line was determined; conditions: Homo sapiens
# [51] = system: LOX IMVI; assay: Growth inhibitory activity against Melanoma LOX IMVI cell line; conditions: Homo sapiens
# [52] = system: SK-OV-3; assay: Growth inhibitory activity against Ovarian cancer SK-OV-3 cell line was determined; conditions: Homo sapiens
# [53] = system: A498; assay: Growth inhibitory activity against Renal cancer A498 cell line was determined; conditions: Homo sapiens
# [54] = system: HCT-116; assay: Growth inhibitory activity against colon cancer HCT116 cell line was determined; conditions: Homo sapiens
# [55] = system: COLO 205; assay: Growth inhibitory activity against colon cancer COLO 205 cell line was determined; conditions: Homo sapiens
# [56] = system: Hs-578T; assay: Growth inhibitory activity against Breast cancer HS 578T cell line was determined; conditions: Homo sapiens
# [57] = system: SNB-75; assay: Growth inhibitory activity against CNS cancer SNB-75 cell line was determined; conditions: Homo sapiens
# [58] = system: CAKI-1; assay: Growth inhibitory activity against Renal cancer CAKI-1 cell line […]; conditions: Homo sapiens
smiles,measurement,setting,value
CCOC(=O)CNC(=O)c1ccccc1Nc1ccnc(C(F)(F)F)c1,GI50,[1],34000 nM
same,GI50,[2],27000 nM
same,Proliferation,[3],59%
same,GI50,[4],29000 nM
same,GI50,[5],32000 nM
same,GI50,[6],18000 nM
same,GI50,[7],29000 nM
same,Proliferation,[8],19%
same,GI50,[9],37000 nM
same,GI50,[10],19000 nM
same,GI50,[11],26000 nM
same,GI50,[12],29000 nM
same,GI50,[13],31000 nM
same,GI50,[14],51000 nM
same,GI50,[15],10000 nM
same,GI50,[16],100000 nM
same,GI50,[17],16000 nM
same,GI50,[18],39000 nM
same,GI50,[19],17000 nM
same,GI50,[20],29000 nM
same,GI50,[21],17000 nM
same,GI50,[22],23000 nM
same,GI50,[23],36000 nM
same,GI50,[24],20000 nM
same,GI50,[25],16000 nM
same,GI50,[26],20000 nM
same,GI50,[27],30000 nM
same,GI50,[28],24000 nM
same,GI50,[29],26000 nM
same,GI50,[30],20000 nM
same,GI50,[31],24000 nM
same,GI50,[32],71000 nM
same,GI50,[33],11000 nM
same,GI50,[34],24000 nM
same,GI50,[35],22000 nM
same,GI50,[36],22000 nM
same,GI50,[37],35000 nM
same,GI50,[38],71000 nM
same,GI50,[39],18000 nM
same,GI50,[40],27000 nM
same,GI50,[41],25000 nM
same,GI50,[42],22000 nM
same,GI50,[43],33000 nM
same,Proliferation,[44],60%
same,GI50,[45],50 nM
same,GI50,[46],25000 nM
same,GI50,[47],28000 nM
same,GI50,[48],69000 nM
same,GI50,[49],21000 nM
same,GI50,[50],2200 nM
same,GI50,[51],17000 nM
same,GI50,[52],29000 nM
same,GI50,[53],64000 nM
same,GI50,[54],21000 nM
same,GI50,[55],19000 nM
same,GI50,[56],46000 nM
O=C(Oc1cccnc1)c1ccccc1Nc1ccnc(C(F)(F)F)c1,GI50,[1],260 nM
same,GI50,[2],220 nM
same,Proliferation,[3],75%
same,GI50,[4],290 nM
same,GI50,[5],2900 nM
same,GI50,[6],40 nM
same,GI50,[7],720 nM
same,Proliferation,[8],22%
same,GI50,[9],270 nM
same,GI50,[10],340 nM
same,GI50,[11],490 nM
same,GI50,[12],50 nM
same,GI50,[13],390 nM
same,GI50,[14],80 nM
same,GI50,[15],170 nM
same,GI50,[16],510 nM
same,GI50,[17],50 nM
same,GI50,[18],60 nM
same,GI50,[19],10 nM
same,GI50,[20],270 nM
same,GI50,[21],350 nM
same,GI50,[22],660 nM
same,GI50,[23],10 nM
same,GI50,[24],340 nM
same,GI50,[25],30 nM
same,GI50,[26],60 nM
same,GI50,[27],330 nM
same,GI50,[28],140 nM
same,GI50,[29],690 nM
same,GI50,[30],60 nM
same,GI50,[31],390 nM
same,GI50,[32],360 nM
same,GI50,[33],50 nM
same,GI50,[34],410 nM
same,GI50,[35],410 nM
same,GI50,[36],420 nM
same,GI50,[37],460 nM
same,GI50,[38],310 nM
same,GI50,[39],520 nM
same,GI50,[40],310 nM
same,GI50,[41],160 nM
same,GI50,[42],60 nM
same,GI50,[43],44000 nM
same,Proliferation,[44],62%
same,GI50,[45],480 nM
same,GI50,[46],30 nM
same,GI50,[47],10 nM
same,GI50,[48],55000 nM
same,GI50,[49],10 nM
same,GI50,[50],30 nM
same,GI50,[51],50 nM
same,GI50,[52],250 nM
same,GI50,[53],520 nM
same,GI50,[54],30 nM
same,GI50,[55],140 nM
same,GI50,[56],570 nM
O=C(Oc1ccccc1Cl)c1ccccc1Nc1ccnc(C(F)(F)F)c1,GI50,[1],280 nM
same,GI50,[2],4300 nM
same,Proliferation,[3],17%
same,GI50,[4],220 nM
same,GI50,[5],4800 nM
same,GI50,[6],50 nM
same,GI50,[7],730 nM
same,Proliferation,[8],3%
same,GI50,[9],650 nM
same,GI50,[11],460 nM
same,GI50,[12],390 nM
same,GI50,[13],8600 nM
same,GI50,[14],320 nM
same,GI50,[15],260 nM
same,GI50,[16],290 nM
same,GI50,[57],680 nM
same,GI50,[18],130 nM
same,GI50,[19],30 nM
same,GI50,[20],250 nM
same,GI50,[21],310 nM
same,GI50,[58],290 nM
same,GI50,[23],340 nM
same,GI50,[24],660 nM
same,GI50,[25],20 nM
same,GI50,[26],360 nM
same,GI50,[27],7400 nM
same,GI50,[28],220 nM
same,GI50,[29],240 nM
same,GI50,[30],220 nM
same,GI50,[31],320 nM
same,GI50,[32],2200 nM
same,GI50,[33],240 nM
same,GI50,[34],330 nM
same,GI50,[35],510 nM
same,GI50,[36],300 nM
same,GI50,[37],260 nM
same,GI50,[38],240 nM
same,GI50,[39],270 nM
same,GI50,[40],330 nM
same,GI50,[41],280 nM
same,GI50,[42],250 nM
same,GI50,[43],470 nM
same,Proliferation,[44],6%
same,GI50,[45],20 nM
same,GI50,[46],30 nM
same,GI50,[47],580 nM
same,GI50,[49],2700 nM
same,GI50,[50],30 nM
same,GI50,[51],20 nM
same,GI50,[52],8000 nM
same,GI50,[53],3900 nM
same,GI50,[54],1800 nM
same,GI50,[56],320 nM
